Data as given in US20050152847A1, “Novel formulation” (priority 2002, published 2005).
Counter-ions that a name gives are not always drawn.

Experiments:
[1] = iso-osmotic with serum/saline; cited from earlier work
stable asthma patients = conditions: fifteen stable asthma patients; lactose dry powder alone; no dosage data given; cited from earlier work
[2] = cited from earlier work
[3] = cited from earlier work; remark: listed apart in the source
[4] = generally regarded; cited from earlier work
[5] = Concentration of aqueous solution iso-osmotic with serum/saline; type: physicochemical; conditions: expected from number of molecules, not measured
Source text: We preferably select an excipient with a concentration of at least >5.5%, preferably >7%—compounds that could be regarded as weak osmolytic or non-osmolytic active compounds—teaching away from WO 00/36915. The selected concentration values are based upon the clinical results presented for lactose and mannitol. The physiological condition is pH 7.4 and 276 mOsm.
The osmotic pressure is proportional to the concentration of the solute for nonelectrolytes. The osmotic pressures of solutions of different nonelectrolytes are proportional to the number of molecules in each solution. This means—when having the same amount in grams—a disaccharide will have about half the osmotic pressure as a monosaccharide, which could also be seen in table 1. This type of generalisations could not be used for electrolytes. All disaccharides (e.g. trehalose) would be expected to have an osmotic pressure corresponding to a solution of at least >7% and trisaccharides (e.g. melezitose, raffinose) needed higher concentration in order to be iso-osmotic with a saline solution. The carbohydrate myo-inositol would be expected to have a concentration of less than 5% for iso-osmolytic activity with saline.

| SMILES | Concentration of aqueous solution iso-osmotic with serum (%) [1] [%] | other results |
| --- | --- | --- |
| O=C1O[C@H]([C@@H](O)CO)C(O)=C1O [Ascorbic acid] | 5.9 | – |
| O=C1O[C@H]([C@@H](O)CO)C([O-])=C1O.[Na+] [Sodium ascorbate] | 3.0 | – |
| OC[C@@H](O)[C@@H](O)[C@H](O)[C@@H](O)CO [Sorbitol] | 5.5 | – |
| OC[C@@H](O)[C@@H](O[C@@H]1O[C@H](CO)[C@H](O)[C@H](O)[C@H]1O)[C@H](O)[C@@H](O)CO [Lactitol] | 7 | – |
| O=C(CO)[C@@H](O)[C@H](O)[C@H](O)CO [Fructose] | 5.1 | – |
| [Cl-].[Na+] [Sodium chloride] | 0.9 | – |
| OC[C@@H](O)[C@H](O)[C@@H](O)CO [Xylitol] | 4.6 | – |
| O=C[C@H](O)[C@@H](O)[C@@H](O)[C@H](O)CO [Galactose] | 4.9 | – |
| OC[C@@H](O)[C@@H](O)[C@H](O)[C@H](O)CO [Mannitol] | 5.1 | – |
| CCN(CC)CC(=O)Nc1c(C)cccc1C [Lidocaine-HCl, reference compound] | 4.4 | – |
| OC[C@H]1O[C@@H](O[C@H]2[C@H](O)[C@@H](O)C(O)O[C@@H]2CO)[C@H](O)[C@@H](O)[C@H]1O (stereo partly drawn) [Lactose] | 9.8 | Bronchoconstriction after inhalation of dry powder (stable asthma patients): caused bronchoconstriction |
| OC[C@H]1O[C@@](CO)(O[C@H]2O[C@H](CO)[C@@H](O)[C@H](O)[C@H]2O)[C@@H](O)[C@@H]1O [Sucrose] | 9.3 | Moisture sensitivity ([2]; submitted to humidity): very moisture sensitive |
| Cc1cc(C(C)(C)C)c(O)c(C)c1CC1=NCCN1.Cl [Oxymethazoline-HCl, reference compound] | 4.9 | – |
| OC[C@@H](O)[C@@H](O[C@H]1O[C@H](CO)[C@@H](O)[C@H](O)[C@H]1O)[C@H](O)[C@@H](O)CO [Maltitol] | 10 | Stability of water solution ([3]; pH 4-9 even at higher temperatures): very stable; Stability of water solution (time stable) ([3]; room temperature and pH 2-9): at least 2 years; Relative humidity at which moisture is absorbed ([2]; 20° C.): ≥ 89%; Toxicity, allergenicity, irritancy [4]: nontoxic, nonallergenic and nonirritant |
| O[C@H]1[C@H](O)[C@@H](O)[C@H](O)[C@@H](O)[C@H]1O [myo-inositol] | – | Expected concentration of solution iso-osmotic with saline [5]: less than 5% |
